Reference: paper PMC11435058, “Synthesis of New Thiazole-Privileged Chalcones as Tubulin Polymerization Inhibitors with Potential Anticancer Activities” (Pharmaceuticals, 2024)
Read-outs that look alike come from different tables or passages of the source.

Assays:
[1] = test system: 60 human tumor cell lines panel; assay: NCI-60 anticancer screen, whole panel (means and ranges over the cell lines); format: cell-based; settings: for activity at 10 µM: Homo sapiens, 48 h, dose of 10 μM
SNB-19 = assay: cells; settings: Homo sapiens
K-562 = assay: NCI-60 anticancer screen (SRB; single dose and five doses); settings: Homo sapiens
MOLT-4 = assay: as above; settings: Homo sapiens
RPMI-8226 = assay: as above; settings: Homo sapiens
SR = assay: as above; settings: Homo sapiens
EKVX = assay: as above; settings: Homo sapiens
NCI-H226 = assay: as above; settings: Homo sapiens
NCI-H23 = assay: as above; settings: Homo sapiens
NCI-H322M = assay: as above; settings: Homo sapiens
NCI-H522 = assay: as above; settings: Homo sapiens
COLO 205 = assay: as above; settings: Homo sapiens
SF-268 = assay: as above; settings: Homo sapiens
SF-539 = assay: as above; settings: Homo sapiens
MALME-3M = assay: as above; settings: Homo sapiens
M14 = assay: as above; settings: Homo sapiens
SK-MEL-5 = assay: as above; settings: Homo sapiens
NCI/ADR-RES = assay: as above; settings: Homo sapiens
A498 = assay: as above; settings: Homo sapiens
ACHN = assay: as above; settings: Homo sapiens
RXF 393 = assay: as above; settings: Homo sapiens
SN12C = assay: as above; settings: Homo sapiens
PC-3 = assay: as above; settings: Homo sapiens
DU-145 = assay: as above; settings: Homo sapiens
MCF7 = assay: as above; settings: Homo sapiens
MDA-MB-231/ATCC = assay: as above; settings: Homo sapiens
HS 578T = assay: as above; settings: Homo sapiens
BT-549 = assay: as above; settings: Homo sapiens
CCRF-CEM = assay: NCI-60 anticancer screen (SRB; single dose 10 μM and five doses); settings: Homo sapiens
[2] = five doses, mean graph midpoint over all cell lines
[3] = 48 h, read-out: Growth Percentage

Cc1[nH]c(=S)sc1C(=O)/C=C/c1ccc(F)cc1 [2c, (E)-3-(4-Fluorophenyl)-1-(4-Methyl-2-Thioxo-2,3-Dihydrothiazol-5-yl)Prop-2-En-1-One]
activity at 10 µM ([1]; mean over the tested cell lines, read-out: Mean growth percentage): 36.7% | activity at 10 µM ([1]; range over the cell lines, read-out: growth percentages against most of the tested cells (lowest to highest)): -13.6 to 119% | Log10GI50 _MID [1, 2]: -5.23 Molar | Log10LC50 _MID [1, 2]: -4.26 Molar | Log10TGI _MID [1, 2]: -4.65 Molar | GI50 (SNB-19; SNB-19): 4.87 µM | activity at 10 µM (SNB-19; SNB-19, 48 h, read-out: Growth Percentage): 33.7% | CC50 (SNB-19; SNB-19, read-out: LC50): 43.1 µM | IC (TGI) (SNB-19; SNB-19, read-out: TGI): 17.8 µM | GI50 (K-562; K562): 3.25 µM | activity at 10 µM (K-562; K562, 48 h, read-out: Growth Percentage): 20.4% | CC50 (K-562; K562, read-out: LC50): > 100 µM | IC (TGI) (K-562; K562, read-out: TGI): 48.8 µM | GI50 (MOLT-4; MOLT-4): 16.7 µM | activity at 10 µM (MOLT-4; MOLT-4, 48 h, read-out: Growth Percentage): 58.7% | CC50 (MOLT-4; MOLT-4, read-out: LC50): > 100 µM | IC (TGI) (MOLT-4; MOLT-4, read-out: TGI): 64.3 µM | GI50 (RPMI-8226; RPMI-8226): 2.85 µM | activity at 10 µM (RPMI-8226; RPMI-8226, 48 h, read-out: Growth Percentage): 2.32% | CC50 (RPMI-8226; RPMI-8226, read-out: LC50): > 100 µM | IC (TGI) (RPMI-8226; RPMI-8226, read-out: TGI): > 100 µM | GI50 (SR): 3.19 µM | activity at 10 µM (SR; [3]): 18.3% | CC50 (SR; read-out: LC50): > 100 µM | IC (TGI) (SR; read-out: TGI): > 100 µM | GI50 (EKVX): 12.8 µM | activity at 10 µM (EKVX; [3]): 51% | CC50 (EKVX; read-out: LC50): 64.6 µM | IC (TGI) (EKVX; read-out: TGI): 28.7 µM | GI50 (NCI-H226; NCI-H226): 5.27 µM | activity at 10 µM (NCI-H226; NCI-H226, 48 h, read-out: Growth Percentage): 67.1% | CC50 (NCI-H226; NCI-H226, read-out: LC50): > 100 µM | IC (TGI) (NCI-H226; NCI-H226, read-out: TGI): 27.6 µM | GI50 (NCI-H23; NCI-H23): 10.6 µM | activity at 10 µM (NCI-H23; NCI-H23, 48 h, read-out: Growth Percentage): 62.7% | CC50 (NCI-H23; NCI-H23, read-out: LC50): 49.9 µM | IC (TGI) (NCI-H23; NCI-H23, read-out: TGI): 23 µM | GI50 (NCI-H322M): 4.1 µM | activity at 10 µM (NCI-H322M; [3]): 64% | CC50 (NCI-H322M; read-out: LC50): 44.8 µM | IC (TGI) (NCI-H322M; read-out: TGI): 17.9 µM | GI50 (NCI-H522; NCI-H522): 8.63 µM | activity at 10 µM (NCI-H522; NCI-H522, 48 h, read-out: Growth Percentage): 44.2% | CC50 (NCI-H522; NCI-H522, read-out: LC50): 46.8 µM | IC (TGI) (NCI-H522; NCI-H522, read-out: TGI): 21.2 µM | GI50 (COLO 205; COLO 205): 15.4 µM | CC50 (COLO 205; COLO 205, read-out: LC50): 80.4 µM | IC (TGI) (COLO 205; COLO 205, read-out: TGI): 35.2 µM | GI50 (SF-268; SF-268): 13 µM | activity at 10 µM (SF-268; SF-268, 48 h, read-out: Growth Percentage): 58.6% | CC50 (SF-268; SF-268, read-out: LC50): 63.1 µM | IC (TGI) (SF-268; SF-268, read-out: TGI): 28.7 µM | GI50 (SF-539; SF-539): 2.94 µM | activity at 10 µM (SF-539; SF-539, 48 h, read-out: Growth Percentage): -4.61% | IC (TGI) (SF-539; SF-539, read-out: TGI): 10.8 µM | GI50 (MALME-3M): 12.4 µM | activity at 10 µM (MALME-3M; [3]): 85.8% | CC50 (MALME-3M; read-out: LC50): 60.9 µM | IC (TGI) (MALME-3M; read-out: TGI): 27.5 µM | GI50 (M14; M14): 6.97 µM | activity at 10 µM (M14; M14, 48 h, read-out: Growth Percentage): 49.6% | IC (TGI) (M14; M14, read-out: TGI): 22.2 µM | GI50 (SK-MEL-5; SK-MEL-5): 6.77 µM | activity at 10 µM (SK-MEL-5; SK-MEL-5, 48 h, read-out: Growth Percentage): 42.6% | CC50 (SK-MEL-5; SK-MEL-5, read-out: LC50): 44.2 µM | IC (TGI) (SK-MEL-5; SK-MEL-5, read-out: TGI): 19.5 µM | GI50 (NCI/ADR-RES): 5.92 µM | activity at 10 µM (NCI/ADR-RES; [3]): -10.8% | CC50 (NCI/ADR-RES; read-out: LC50): 85 µM | IC (TGI) (NCI/ADR-RES; read-out: TGI): 24.9 µM | GI50 (A498; A498): 13.6 µM | activity at 10 µM (A498; A498, 48 h, read-out: Growth Percentage, A498, dose of 10 μM): 115% | CC50 (A498; A498, read-out: LC50): 52.6 µM | IC (TGI) (A498; A498, read-out: TGI): 26.8 µM | GI50 (ACHN): 7.02 µM | activity at 10 µM (ACHN; [3]): 47.2% | CC50 (ACHN; read-out: LC50): 44.3 µM | IC (TGI) (ACHN; read-out: TGI): 19.6 µM | GI50 (RXF 393; RXF 393): 3.02 µM | activity at 10 µM (RXF 393; RXF 393, 48 h, read-out: Growth Percentage): 23.2% | CC50 (RXF 393; RXF 393, read-out: LC50): 37.2 µM | IC (TGI) (RXF 393; RXF 393, read-out: TGI): 13 µM | GI50 (SN12C): 3.95 µM | activity at 10 µM (SN12C; [3]): 24.1% | CC50 (SN12C; read-out: LC50): 46.7 µM | IC (TGI) (SN12C; read-out: TGI): 17 µM | GI50 (PC-3; PC-3): 5.82 µM | activity at 10 µM (PC-3; PC-3, 48 h, read-out: Growth Percentage): 43.4% | CC50 (PC-3; PC-3, read-out: LC50): > 100 µM | IC (TGI) (PC-3; PC-3, read-out: TGI): 29.7 µM | GI50 (DU-145; DU-145): 4.32 µM | activity at 10 µM (DU-145; DU-145, 48 h, read-out: Growth Percentage): 20.3% | CC50 (DU-145; DU-145, read-out: LC50): 39.9 µM | IC (TGI) (DU-145; DU-145, read-out: TGI): 15.7 µM | GI50 (MCF7; MCF7): 2.65 µM | activity at 10 µM (MCF7; MCF7, 48 h, read-out: Growth Percentage): 9.48% | CC50 (MCF7; MCF7, read-out: LC50): 37 µM | IC (TGI) (MCF7; MCF7, read-out: TGI): 11.4 µM | GI50 (MDA-MB-231/ATCC; MDA-MB-231): 15.7 µM | activity at 10 µM (MDA-MB-231/ATCC; MDA-MB-231, 48 h, read-out: Growth Percentage): 29.7% | CC50 (MDA-MB-231/ATCC; MDA-MB-231, read-out: LC50): 66.1 µM | IC (TGI) (MDA-MB-231/ATCC; MDA-MB-231, read-out: TGI): 32.2 µM | GI50 (HS 578T): 13.2 µM | activity at 10 µM (HS 578T; [3]): 95.3% | CC50 (HS 578T; read-out: LC50): > 100 µM | IC (TGI) (HS 578T; read-out: TGI): 40.2 µM | GI50 (BT-549; BT-549): 2.34 µM | activity at 10 µM (BT-549; BT-549, 48 h, read-out: Growth Percentage): 23.2% | IC (TGI) (BT-549; BT-549, read-out: TGI): 8.27 µM | GI50 (CCRF-CEM): 3.68 µM | activity at 10 µM (CCRF-CEM; [3]): -0.21% | IC (TGI) (CCRF-CEM; read-out: TGI): > 100 µM
